In PubChem BioAssay AID1259407 (Chemical Carcinogenesis Research Information System (CCRIS), 2018):
Calls of active or inactive are those of the source. How the calls were made is not given here.

System: CCRIS mutagenicity, Ames/micronucleus/aberration tests
Assay: CCRIS mutagenicity studies
[1] = Test System: AMES SALMONELLA TYPHIMURIUM, Strain/Indicator: TA98, Metabolic Activation: RAT, LIVER, S-9, AROCLOR 1254, Method: STANDARD PLATE
[2] = Test System: AMES SALMONELLA TYPHIMURIUM, Strain/Indicator: TA100, Metabolic Activation: NONE, Method: STANDARD PLATE
[3] = Test System: AMES SALMONELLA TYPHIMURIUM, Strain/Indicator: TA100, Metabolic Activation: RAT, LIVER, S-9, AROCLOR 1254, Method: STANDARD PLATE

`Nc1ccc(-c2ccc(Cl)cc2)cc1` was tested, and the mutagenic call (Test System: AMES SALMONELLA TYPHIMURIUM, Strain/Indicator: TA98, Metabolic Activation: NONE, Method: STANDARD PLATE) was “inactive; negative”, the mutagenic call [1] was “active; positive” and the mutagenic call [2] was “inactive; negative”. The mutagenic call [3] was “active; positive”.
In the case of `Cc1cc(N(C)C)ccc1N=Nc1ccccc1`, the mutagenic call (Test System: AMES SALMONELLA TYPHIMURIUM, Strain/Indicator: TA98, Metabolic Activation: RAT, LIVER, MICROSOMES, 2-METHYL-4-DIMETHYLAMINOAZOBENZENE, Method: PREINCUBATION) is reported as “inactive; negative”, the mutagenic call (Test System: AMES SALMONELLA TYPHIMURIUM, Strain/Indicator: TA98, Metabolic Activation: RAT, LIVER, MICROSOMES, AROCLOR 1254, Method: PREINCUBATION) is reported as “active; positive” and the mutagenic call (Test System: AMES SALMONELLA TYPHIMURIUM, Strain/Indicator: TA98, Metabolic Activation: RAT, LIVER, MICROSOMES, Method: PREINCUBATION) is reported as “inactive; negative”. For the same compound, the mutagenic call [1] was “active; positive”, the mutagenic call (Test System: AMES SALMONELLA TYPHIMURIUM, Strain/Indicator: TA98, Metabolic Activation: RAT, LIVER, S-9, KC500 OR PHENOBARBITAL, Method: LIQUID SUSPENSION) was “active; positive” and the mutagenic call [3] was “active; positive”. For the same compound, the mutagenic call (Test System: AMES SALMONELLA TYPHIMURIUM, Strain/Indicator: TA100, Metabolic Activation: RAT, LIVER, S-9, KC500 OR PHENOBARBITAL, Method: LIQUID SUSPENSION) was “active; positive” and the mutagenic call (Test System: UDS RODENT HEPATOCYTES, Strain/Indicator: THY INCORP (NON-S-PHASE), Method: AUTORADIOGRAPHY) was “active; positive”.
In the case of `Cc1ccc([N+]#N)cc1`, the mutagenic call [2] is reported as “active; positive”, the mutagenic call (Test System: AMES SALMONELLA TYPHIMURIUM, Strain/Indicator: TA102, Metabolic Activation: NONE, Method: STANDARD PLATE) is reported as “active; positive” and the mutagenic call (Test System: CHINESE HAMSTER V-79, Strain/Indicator: V-79/6-THIOGUANINE, Metabolic Activation: NONE) is reported as “active; positive”.
With `O=C(Nc1ccc([N+](=O)[O-])cc1Cl)c1cc(Cl)ccc1O` the mutagenic call (Test System: AMES SALMONELLA TYPHIMURIUM, Strain/Indicator: TA98(NR), Metabolic Activation: RAT, LIVER, S-9, AROCLOR 1254, Method: STANDARD PLATE) was “inactive; negative”, the mutagenic call (Test System: AMES SALMONELLA TYPHIMURIUM, Strain/Indicator: TA98, Metabolic Activation: NONE, Method: PREINCUBATION) was “inactive; negative” and the mutagenic call (Test System: AMES SALMONELLA TYPHIMURIUM, Strain/Indicator: TA98, Metabolic Activation: RAT, LIVER, S-9, AROCLOR 1254, Method: PREINCUBATION) was “active; positive”. The mutagenic call (Test System: AMES SALMONELLA TYPHIMURIUM, Strain/Indicator: TA1538, Metabolic Activation: NONE, Method: PREINCUBATION) was “inactive; negative”, the mutagenic call (Test System: AMES SALMONELLA TYPHIMURIUM, Strain/Indicator: TA1538, Metabolic Activation: RAT, LIVER, S-9, AROCLOR 1254, Method: PREINCUBATION) was “active; positive” and the mutagenic call (Test System: AMES SALMONELLA TYPHIMURIUM, Strain/Indicator: TA1978, Metabolic Activation: NONE, Method: PREINCUBATION) was “inactive; negative”. For the same compound, the mutagenic call (Test System: AMES SALMONELLA TYPHIMURIUM, Strain/Indicator: TA1978, Metabolic Activation: RAT, LIVER, S-9, AROCLOR 1254, Method: PREINCUBATION) was “inactive; negative”, the mutagenic call (Test System: AMES SALMONELLA TYPHIMURIUM, Strain/Indicator: UTH8413, Metabolic Activation: NONE, Method: PREINCUBATION) was “inactive; negative” and the mutagenic call (Test System: AMES SALMONELLA TYPHIMURIUM, Strain/Indicator: UTH8413, Metabolic Activation: RAT, LIVER, S-9, AROCLOR 1254, Method: PREINCUBATION) was “inactive; negative”. For the same compound, the mutagenic call (Test System: AMES SALMONELLA TYPHIMURIUM, Strain/Indicator: YG1020, Metabolic Activation: RAT, LIVER, S-9, AROCLOR 1254, Method: STANDARD PLATE) was “active; positive”, the mutagenic call (Test System: AMES SALMONELLA TYPHIMURIUM, Strain/Indicator: YG1021, Metabolic Activation: RAT,LIVER, S-9, AROCLOR 1254, Method: STANDARD PLATE) was “active; positive” and the mutagenic call (Test System: AMES SALMONELLA TYPHIMURIUM, Strain/Indicator: YG1024, Metabolic Activation: RAT, LIVER, S-9, AROCLOR 1254, Method: STANDARD PLATE) was “active; positive”.
